In patent US9593146B2, “CD44v6-derived peptides for treating metastasizing cancer” (AMCURE GMBH, priority 2012, dated 2017):
Residues, ends and D or L forms follow the SMILES beside them. No end group written: not given here. *: point of attachment. PEG2000 = polyethylene glycol with a molecular weight of 2000 Da; DOTA = O=C(O)CN1CCN(CC(=O)O)CCN(CC(=O)*)CCN(CC(=O)O)CC1; Myristoyl = CCCCCCCCCCCCCC(=O)*

Key:
L3.6pl cells = experiment: Human orthotopic model of pancreatic cancer, L3.6pl cells in nude mice; type: in vivo; conditions: for metastatic spreading to the liver (side-by-side comparison): 20 μg per injection three times per week for 3 weeks (FIG. 24); for tumor growth compared to the control peptide (side-by-side comparison): 20 μg per injection three times per week for 3 weeks, 5 animals per group; for reduction of tumor size, ranking (side-by-side comparison): 20 μg per injection three times per week for 3 weeks (FIG. 23A); for variability in the individual tumor size within the group: 20 μg per injection three times per week for 3 weeks (FIG. 23B)
Description: In the case of the human orthotopic model, L3.6pl pancreatic carcinoma cells (passage 24-26) were suspended in Hank's balanced salt solution (Invitrogen, Karlsruhe, Germany) after trypsinization. The cells were injected orthotopically in the pancreas of male nude mice as described (Bruns C J et al. (1999) Neoplasia 1(1):50-62). Two groups of 15 mice each were injected i.p. 7 days later with either the human v6 peptide respectively rat control peptide (20 μg). For all experiments described and depicted herein either the rat 14mer control peptide or the human 14mer peptide were used. All experiments were then repeated with the rat 5mer control peptide or the human 5mer peptide (N-R-W-H-E, SEQ ID NO: 2). […] The injection was repeated three times per week for 21 days. Two days after the last treatment the animals were killed. […]
A comparison of different CD44v6 peptide derivatives was performed in animals bearing a orthotopic L3.6pl tumor. 10 groups of 5 animals each received a dose of 20 μg peptide per injection three times per week for 3 weeks with the compounds listed in Table 4. Three weeks after starting the treatment the animals were sacrificed and analyzed for macroscopic metastases and tumor volume.

Met and ERK = experiment: HGF induced activation of Met and Erk in BSp73ASs6 cells (Western blot); type: cell-based, rat; conditions: ASs6 cells, peptides with 2000 dalton PEG-chain, 150 nM 10 min before HGF 10 ng/ml (FIG. 10)
Description: Serum-starved cells (24 hours) were induced with the growth factor HGF (10 ng/mL) at 37° C. for 5 minutes. Where indicated, the cells were treated with peptides (100 ng/ml) prior to induction at 37° C. for 10 minutes (100 ng/mL CD44v6 peptide or control peptide). Following the induction with HGF, cells were washed with ice-cold phosphate-buffered saline (PBS). To detect activated Met and Erk, cells were lysed in sodium dodecyl sulfate (SDS)-sample buffer containing 100 mM dithiothreitol (DTT), boiled and subjected to western blot analysis using antibodies against phospho-Met and ERK. The loading controls were performed on the same blot after stripping (62.5 mM Tris, pH 6.8, 2% SDS, 0.8% DTT) by probing with the Met respectively ERK antibody. Blots were stained using the enhanced chemiluminescence system (Thermo Fisher Scientific, Schwerte, Germany). Bands in western blot analysis were quantified with the program Image J (National Institutes of Health).
Rat pancreatic cancer cells BSp73ASs6 (also designated Ass6) were incubated for 10 min at 37° C. with either ctrl-peptides (SEQ ID No.: 15), non-pegylated v6-peptides (SEQ ID No.: 11) and increasing concentrations of the pegylated peptides, namely PEG-rat control peptide and PEG-rat CD44v6 peptide, before induction with HGF (10 ng/ml; 5 min at 37° C.).
Activation of ERK and Met was determined by standard SDS and Western Blotting techniques using a phospho-Met and phospho-Erk specific antibody (phospho-Met clone D16 cell signaling, phospho-Erk p42/44 cell signaling)
ASs6 cells, serum starved for 24 h, were induced with HGF (10 ng/ml) at 37° C. for 5 min. Where indicated, the cells were treated with PEGylated or non-PEGylated peptides before induction at 37° C. for 10 min (150 nM). Cells were washed with phosphate-buffered saline (PBS) and lysed in boiling sodium dodecyl sulfate (SDS)-sample buffer containing 100 mM dithiothreitol (DTT). Subsequently, lysates were subjected to Western blot analysis using antibodies against phosphorylated Mek and Erk (Cell signaling). The Mek and Erk loading control were performed on the same blot, stripped (62.5 mM Tris pH 6.8, 2% SDS, 0.8% DTT) and probed with the Mek and Erk antibodies. Blots were stained using the enhanced chemiluminescence system (Thermo Fisher Scientific).

HT29 cells = experiment: HGF induced scattering of HT29 cells; type: cell-based, human
Description: FIG. 17: The human CD44 v6 specific peptides block HGF induced cell scattering and invasion into matrigel. Scattering of HT29 cells was determined in 24-well plates. First, 4.5×10^4 cells were seeded at 37° C.; after 24 h the cells were serum starved for additional 24 h. the cells were either left untreated (control) or later treated with HGF (50 ng/ml) for 24 h. Where indicated the cells were treated with the v6 specific peptide (human v6 5mer, 10mer, 14mer) or control peptide prior to induction with HGF for 30 min. Pictures were made using phase contrast microscopy. Magnification 40×.
A scatter assay was performed additionally. HT29 colon cancer cells were grown in medium containing 10% FCS. One day after seeding, the cells were starved. On the third day, the cells were induced with HGF (10 ng/ml) and pre-incubated with either no peptide, ctrl-peptides (SEQ ID No.: 15), non-pegylated v6-peptides (SEQ ID No.: 11) or the pegylated peptides, namely PEG-rat control peptide and PEG-rat CD44v6 peptide.
Scattering of HT29 cells was determined in 24-well plates. First, 4×10^5 cells were seeded at 37° C.; the cells were either left untreated or 48 h later treated with HGF (50 ng/ml) for 24 h or with PEGylated or non-PEGylated peptides (100 ng/ml) prior to HGF induction for 30 min.

BSp73ASs6 cells [1] = experiment: Rat syngeneic model, subcutaneous BSp73ASs6 tumor, metastasis formation; type: in vivo; conditions: 200 μg per injection, intra-tumoral or intravenously three times a week, start after one week of tumor growth
Description: In the case of the rat syngeneic model, 1×10^6 pancreatic cells (BSp73AS and its transfectants) were subcutaneously injected into the right posterior flank of the animals. Tumors developed for four weeks. During this time period animals injected with BSp73ASs6 cells expressing Met-shRNA or control-shRNA received doxycycline in the drinking water. At the end of the experiment, primary tumors were isolated. Lungs and axillary lymph nodes were analyzed. The tissues were incubated for 24 h in a zinc-fixative (0.5 g calcium acetate, 5.0 g zinc acetate, 5.0 g zinc chloride, in 1 L 0.1 M Tris pH 7.4) and embedded in paraffin for further analysis. In case of peptide or antibody treatment tumors developed for one week before the first treatment. Where indicated, animals received 200 μg of peptide or antibody per injection three times per week for four weeks. Tumor growth was monitored weekly using a caliper. Animals were killed at day 28 or 30 after start of the treatment.
For histo-morphological analysis paraffin-embedded sections of lungs were stained with hematoxylin and eosin and periodic acid-Schiff (H&E or PAS). Serial sections of the whole tissue blocks were examined by analyzing slices every 20 μm; in each slice, the presence and the extension of the metastatic deposit was assessed, according to the procedure routinely used by pathologists to evaluate the presence of micro-metastases.

BSp73ASs6 cells [2] = experiment: Apoptosis in established lung metastases (cleaved Caspase-3, cleaved Caspase-8), BSp73ASs6 rat model; type: in vivo; conditions: injection every second day
Description: 7 μm thick paraffin sections were deparaffinized and rehydrated. For P-Met staining antigen unmasking was achieved by boiling the slides in 1 mM EDTA pH 8.0 followed by incubation for 15 minutes at a sub-boiling temperature, for CD31 staining the sections were treated with Proteinase K (8 μg/ml) for 10 min at 37° C. For immunofluorescence staining of P-Met, unspecific binding was blocked with 5% goat serum (DAKO, Glostrup, Denmark) (diluted in 1×PBS/0.3% Triton X-100) for 60 minutes. In the case of immunohistochemistry, endogenous peroxidases were at first blocked with 3% H2O2 in PBS followed by incubation with biotin blocking system (Dako, Glostrup, Denmark) and then unspecific binding was inhibited by incubation with 5% FCS in PBS. The sections were incubated with the P-Met antibody (D26, dilution 1:50 in 1×PBS/1% BSA/0.3% Triton X-100), Met antibody (C-28, dilution 1:50), GFP antibody (sc-101525, dilution 1:50) or CD31 antibody (5 μg/ml) over night or VFF18 (5 μg/ml) o/n at 4° C. After washing in PBS the sections were incubated with Alexa Fluor R 546 goat anti-rabbit (in case of immunofluorescence P-Met and Met staining, dilution 1:500) or a biotinylated secondary antibody (for immunohistochemical stainings rabbit anti-rat antibody for VFF18 and CD31, goat anti-rabbit for P-Met, cleaved Caspase-3 and cleaved Caspase-8 and rabbit anti-mouse for GFP, dilution 1:500) for 45 minutes. For DAB (3,3′-diaminobenzidine) staining the sections were treated with a streptavidin-peroxidase conjugate (Dako, Glostrup, Denmark) and developed with DAB substrate system (3,3′-diaminobenzidine; Biozol, Eching, Germany). For immunofluorescence DAPI was used for nuclear staining.
One hypothesis for the disappearance of metastases is that the peptides induce apoptosis of CD44v6-expressing metastatic cells in the secondary organs. In order to test this hypothesis, the experiment described above using the BSp73ASs6 cells was repeated. The cells were injected subcutaneously in syngeneic rats and the tumor was allowed to develop for three weeks. After that time the animals were separated in two groups of 10 animals that were injected either with the specific rat CD44v6 peptide or with the control peptide (mouse) every second day. One day following each injection of the peptide, the lungs of one animal were removed and apoptosis was measured using an antibody that detects the cleaved form of Caspase 3. […] Twelve days after injection of the CD44v6 peptide, less apoptosis was observed. […] From these experiments, it is concluded that the CD44v6 peptide induces apoptosis of metastatic cells.

“Myr-Y-cy[KGNRWHEG] (Myristoyl-YKGNRWHEG; not fully specified (bridges); printed as Myr-Y-cy[KGNRWHEG]; also: cyclic, ring closure not given here) [Myr-Y-cycl 8 mer]” was tested, and the “metastatic spreading to the liver (side-by-side comparison)” value (“metastatic spreading to the liver” for short) (L3.6pl cells) was “decrease of metastatic spreading”.

With “PEG840-KEQWFGNRWHEGYR-OH [PEG840 14-mer]” the “metastatic spreading to the liver” value (L3.6pl cells) was “decrease of metastatic spreading” and the “tumor growth compared to the control peptide (side-by-side comparison)” value (L3.6pl cells) was “significant reduction in tumor growth”.

“PEG-NAAAG [PEG-control peptide, pegylated control peptide, 3 essential aa replaced by alanines, reference compound]” was tested, and the “HGF induced Met-phosphorylation and Erk signaling” value (Met and ERK) was “showed no effect” and the “HGF induced scattering of HT29 cells” value (HT29 cells; PEGylated peptides 100 ng/ml prior to HGF 50 ng/ml (Example 5, FIG. 11)) was “not with PEGylated control peptides”.

“DOTA-keqwfGNRWHEGyr [DOTA CD44v6-14 [daa7]]” was tested, and the “metastatic spreading to the liver” value (L3.6pl cells) was “decrease of metastatic spreading”.

With “PEG2000-KEQWFGNRWHEGYR-OH [PEG2000 14-mer]” the “reduction of tumor size, ranking (side-by-side comparison)” value (from here on “reduction of tumor size, ranking”) (L3.6pl cells) was “strongest reduction of tumor size”, the “variability in the individual tumor size within the group” value (“variability” for short) (L3.6pl cells) was “low variability” and the “metastatic spreading to the liver” value (L3.6pl cells) was “decrease of metastatic spreading”. For the same compound, the “tumor growth compared to the control peptide (side-by-side comparison)” value (L3.6pl cells) was “significant reduction in tumor growth”.

“NAAAG [ctrl-peptides, reference compound]” was tested, and the “HGF induced clustering / scattering of HT29 cells (FIG. 11)” value (HT29 cells; HGF 10 ng/ml, peptide pre-incubation (Example 2)) was “not control peptides lead to dissociation and migration”.

In the case of DOTA-cy[KRWHE] [cycl 5 mer], the “reduction of tumor size, ranking” value (L3.6pl cells) is reported as “strongest reduction of tumor size”, the “variability” value (L3.6pl cells) is reported as “low variability” and the “metastatic spreading to the liver” value (L3.6pl cells) is reported as “complete inhibition of metastasis”.

In the case of N=C(N)NCCC[C@H](NC(=O)[C@@H](N)CC(N)=O)C(=O)N[C@@H](Cc1c[nH]c2ccccc12)C(=O)N[C@@H](Cc1c[nH]cn1)C(=O)N[C@@H](CCC(=O)O)C(=O)O [human 5mer, NRWHE] (H-NRWHE-OH; N-terminus and C-terminus assumed), the “side effects in the animals” value (L3.6pl cells; 200 μg per injection i.p. three times per week) is reported as “did not lead to side effects in the animals”.

For “mouse control peptides: mouse CD44v6 peptide used as control in the rat syngeneic model (WFQNGWQGKNP) [reference compound]”, the “metastasis (axillary lymph nodes, lungs)” value (BSp73ASs6 cells [1]) was “numerous metastases were detected in the lungs”, the “apoptosis (cleaved Caspase 3) in lung metastases” value (BSp73ASs6 cells [2]) was “No apoptosis at all was detected” and the “lung metastasis at day twenty-two” value (BSp73ASs6 cells [2]) was “metastatic spreading was evident in the lungs”.

With “Myr-KEQWFGNRWHEGYR (Myristoyl-KEQWFGNRWHEGYR) [Myristoyl-14-mer]” the “tumor growth compared to the control peptide (side-by-side comparison)” value (L3.6pl cells) was “no inhibitory effect on tumor growth”.

With “DOTA-KEQWFGNRWHEGYR ({DOTA}-KEQWFGNRWHEGYR; not fully specified (residue 14)) [DOTA CD44v6-14 [r^14]]” the “metastatic spreading to the liver” value (L3.6pl cells) was “complete inhibition of metastasis”.

In the case of “cy[KGNRWHEG] (not fully specified (bridges); printed as cy[KGNRWHEG]; also: cyclic, ring closure not given here) [cycl. 8 mer]”, the “reduction of tumor size, ranking” value (L3.6pl cells) is reported as “strongest reduction of tumor size”, the “variability” value (L3.6pl cells) is reported as “low variability” and the “metastatic spreading to the liver” value (L3.6pl cells) is reported as “complete inhibition of metastasis”. The “metastatic spreading at 2 and 20 μg per injection” value (L3.6pl cells; 2 and 20 μg per injection, three times per week) was “blocked metastatic spreading” and the “size / growth of the primary tumor (dose reduction study)” value (L3.6pl cells; three injections per week for 3 weeks, compared to control groups (FIG. 22C)) was “drastic effect on growth of the primary tumor”.
